# Assays:
# Format in all cases: in vivo
# [1] = system: liver tissue mitochondria; assay: Liver tissue mitochondrial function in liver ischemia-reperfusion; settings: rat, 50 mg/kg i.v. before ischemia, FIGS. 2A and 2B
# Protocol: (§1) Male Wister rats weighing 250-300 g were fasted with free access to water 24 hours before the experiment. Seventy-two rats were divided into three groups of 24 animals each, i.e., the control group, the GSH administration group and the γ-GCE-administration group. Each rat was anesthetized by intraperitoneal administration of 40 mg/0.8 ml/kg of sodium pentobarbital, and the femoral vein was cannulated. In the GSH group and the γ-GCE group, 50 mg/kg of GSH or γ-GCE respectively were administered intravenously. Physiological saline was then infused for volume replacement in each group, as a continuous intravenous infusion at a rate of 0.8 ml/hr with an injection pump throughout the experiment. Thirty minutes after starting injection of physiological saline, the abdomon was opened by a midline incision and the liver hilus was exposed. According to the method described by Hasselgren, et al. in J. Surg. Res., Vol. 34, pp. 409-414, 1984, all vessels to the left and median lobes of the liver, more specifically, hepatic artery, portal vein and the bile duct, were clamped to produce an ischemic state for 2 hours. Since blood vessels to the remaining parts of the liver were not occluded by this method, poral stasis could be avoided which was of special relevance for circulation stability in rats. Thereafter, occlusion of all vessels was released by removing the clamp to allow reperfusion for 1 hour. The abdominal walls were closed during ischemia and reperfusion. […]
# (§2) Evaluation of ischemia-reperfusion injury was performed by measuring liver tissue (1) mitochondrial function, (2) glutathione concentration, (3) adenine nucleotides concentration, and (4) lipid peroxide concentration, as well as liver tissue derived (5) adenine nucleotides concentration in the hepatic vein immediately after starting reperfusion, and (6) liver cell enzyme activities in the blood after 1 hour of reperfusion. More specifically, the mitochondrial function in (1) was measured according to the method described by Chance, et al. in Adv. […] In addition, the quantitative determination of glutathione in (2) was performed using the same method as Experiment 1 on supernatant obtained by adding 10 vol/g of tissue weight of 2.5% (w/v) sulfosalicylic acid dihydrate aqueous solution to the liver tissue followed by homogenization and centrifugation. In addition, the quantitative determination of adenine nucleotides in (3) was performed by neutralizing the perchloric acid extract of the liver tissue with potassium hydroxide followed by removal of the precipitate and applying to an ion exchange HPLC column according to the method described by Sugino, et al. in J. Chromatogr., Vol. 361, pp. 427-431, 1986. […]
# [2] = system: liver ischemia-reperfusion model using rats; assay: Glutathione concentration in liver tissue during liver ischemia-reperfusion; settings: rat, 50 mg/kg i.v.
# Protocol: (§3) Male Wister rats weighing 250-300 g were fasted with free access to water 24 hours before the experiment. Seventy-two rats were divided into three groups of 24 animals each, i.e., the control group, the GSH administration group and the γ-GCE-administration group. Each rat was anesthetized by intraperitoneal administration of 40 mg/0.8 ml/kg of sodium pentobarbital, and the femoral vein was cannulated. In the GSH group and the γ-GCE group, 50 mg/kg of GSH or γ-GCE respectively were administered intravenously. Physiological saline was then infused for volume replacement in each group, as a continuous intravenous infusion at a rate of 0.8 ml/hr with an injection pump throughout the experiment. Thirty minutes after starting injection of physiological saline, the abdomon was opened by a midline incision and the liver hilus was exposed. According to the method described by Hasselgren, et al. in J. Surg. Res., Vol. 34, pp. 409-414, 1984, all vessels to the left and median lobes of the liver, more specifically, hepatic artery, portal vein and the bile duct, were clamped to produce an ischemic state for 2 hours. Since blood vessels to the remaining parts of the liver were not occluded by this method, poral stasis could be avoided which was of special relevance for circulation stability in rats. Thereafter, occlusion of all vessels was released by removing the clamp to allow reperfusion for 1 hour. The abdominal walls were closed during ischemia and reperfusion.
# (§4) Using 18 rats in each group, the livers of 6 animals from each group were removed before ischemia, after 2 hours of ischemia, and after 1 hour of reperfusion, respectively. A portion of the liver from each animal was rapidly frozen in liquid nitrogen and used for measurement of glutathione,adenine nucleotides and lipid peroxide. From the remaining portion of the liver, mitochondria was immediately extracted according to the method described by Hogeboom and Schneider in the J. Biol. Chem., Vol. 172, p. 619, 1948. In other experiments, immediately after starting reperfusion, blood from the hepatic vein was collected using 6 rats from each group. These blood samples were then used to measure leaked adenine nucleotides. In addition, after 1 hour of said reperfusion, blood samples were also drawn, which were then used to measure the activity of the leaked liver cell enzymes.
# (§5) Evaluation of ischemia-reperfusion injury was performed by measuring liver tissue (1) mitochondrial function, (2) glutathione concentration, (3) adenine nucleotides concentration, and (4) lipid peroxide concentration, as well as liver tissue derived (5) adenine nucleotides concentration in the hepatic vein immediately after starting reperfusion, and (6) liver cell enzyme activities in the blood after 1 hour of reperfusion. More specifically, the mitochondrial function in (1) was measured according to the method described by Chance, et al. in Adv. Enzymol., Vol. 17, p. 65, 1956. In addition, the quantitative determination of glutathione in (2) was performed using the same method as Experiment 1 on supernatant obtained by adding 10 vol/g of tissue weight of 2.5% (w/v) sulfosalicylic acid dihydrate aqueous solution to the liver tissue followed by homogenization and centrifugation. In addition, the quantitative determination of adenine nucleotides in (3) was performed by neutralizing the perchloric acid extract of the liver tissue with potassium hydroxide followed by removal of the precipitate and applying to an ion exchange HPLC column according to the method described by Sugino, et al. in J. Chromatogr., Vol. 361, pp. 427-431, 1986. In addition, the measurement of lipid peroxide in (4) was performed according to the thiobarbiturate method described by Ohkawa, et al. in Anal. Biochem., Vol. 95, p. 351, 1979. […]
# [3] = system: coronary ischemia-reperfusion model using dogs; assay: Arrhythmia during coronary ischemia and reperfusion (electrocardiogram); settings: dog
# Protocol: After anesthetizing 52 adult mongrel dogs of either sex weighing ca. 10 kg by intraperitoneal administration of 50 mg/kg of sodium pentobarbital, breathing tubes were immediately intubated endotracheally and artificial ventilation was continued using a Harvard ventilator. Electrocardiogram electrodes were attached, and monitoring and recording were continued throughout the experiment. Following insertion of cannulas in the right femoral vein and right femoral artery, the cannulas were used for continuous intravenous drip of physiological saline to replenish water or administration of the test preparation, and monitoring of arterial blood pressure, respectively. After performing left thoracotomy in the fourth or fifth intercostal space, the pericardium was torn to expose the heart. Ischemia was induced by ligating the left anterior descending coronary artery immediately distal to the first diagonal branch, while reperfusion was performed by subsequently removing that ligation.
# The animals were divided into four groups. Group 1 (n=9) was subjected to ischemia for 2 hours, group 2 (n=17) was subjected to ischemia for 2 hours followed by reperfusion for 1 hour, group 3 (n=10) was subjected to ischemia for 2 hours followed by reperfusion for 1 hour plus intravenous injection of 10 mg/kg of γ-GCE just before reperfusion, and group 4 (n=16) was subjected to 2 hours of ischemia followed by 1 hour of reperfusion plus intravenous injection of 10 mg/kg of reduced glutathione (GSH, control drug) just before reperfusion.
# Evaluation of arrhythmia was performed by analyzing the electrocardiogram to determine the presence of arrhythmia, or in other words, the number of ventricular premature beats, as well as the total duration of ventricular tachycardia, which was defined as more than three successive ventricular premature beats.
# [4] = system: liver ischemia-reperfusion model using rats; assay: Liver lipid peroxide concentration (thiobarbiturate method); settings: rat; 50 mg/kg i.v.; after 1 hour reperfusion
# Protocol: Male Wister rats weighing 250-300 g were fasted with free access to water 24 hours before the experiment. Seventy-two rats were divided into three groups of 24 animals each, i.e., the control group, the GSH administration group and the γ-GCE-administration group. Each rat was anesthetized by intraperitoneal administration of 40 mg/0.8 ml/kg of sodium pentobarbital, and the femoral vein was cannulated. In the GSH group and the γ-GCE group, 50 mg/kg of GSH or γ-GCE respectively were administered intravenously. Physiological saline was then infused for volume replacement in each group, as a continuous intravenous infusion at a rate of 0.8 ml/hr with an injection pump throughout the experiment. Thirty minutes after starting injection of physiological saline, the abdomon was opened by a midline incision and the liver hilus was exposed. […]
# Evaluation of ischemia-reperfusion injury was performed by measuring liver tissue (1) mitochondrial function, (2) glutathione concentration, (3) adenine nucleotides concentration, and (4) lipid peroxide concentration, as well as liver tissue derived (5) adenine nucleotides concentration in the hepatic vein immediately after starting reperfusion, and (6) liver cell enzyme activities in the blood after 1 hour of reperfusion. More specifically, the mitochondrial function in (1) was measured according to the method described by Chance, et al. in Adv. […]
# [5] = system: liver ischemia-reperfusion model using rats; assay: Serum AST, ALT and LDH after 1 hour of reperfusion; settings: rat; 50 mg/kg i.v.
# Protocol: as §3, §4, §5
# [6] = system: liver ischemia-reperfusion model using rats; assay: Adenine nucleotides in hepatic vein immediately after starting reperfusion; settings: rat; 50 mg/kg i.v.
# Protocol: as §1, §2
# [7] = system: liver ischemia-reperfusion model using rats; assay: Adenine nucleotides concentration in liver tissue during liver ischemia-reperfusion; settings: rat, 50 mg/kg i.v.
# Protocol: as §3, §4, §5
# [8] = 10 mg/kg i.v. just before reperfusion
# [9] = during 2 h ischemia, before the drug was given
smiles,measurement,setting,value
"N[C@@H](CCC(=O)N[C@@H](CS)C(=O)NCC(=O)O)C(=O)O [GSH, reduced glutathione, reference compound]",effect on recovery of liver mitochondrial function during reperfusion,[1]; 1 h reperfusion,did not show any protective effects whatsoever
same,effect on reduction of liver mitochondrial St. III O2 caused by ischemia,[1]; 2 h ischemia,did not show any protective effects whatsoever
same,liver glutathione concentration after reperfusion relative to the level prior to ischemia,[2],~70%
same,"Liver tissue glutathione, GSH + GSSG, after 1 hour reperfusion",[2]; after 1 hour reperfusion,3.77 ± 0.64 μmol/g of liver wet weight
same,"Liver tissue glutathione, GSH, after 1 hour reperfusion",[2]; after 1 hour reperfusion,3.40 ± 0.60 μmol/g of liver wet weight
same,"Liver tissue glutathione, GSSG, after 1 hour reperfusion",[2]; after 1 hour reperfusion,0.37 ± 0.05 μmol/g of liver wet weight
same,"Liver tissue glutathione, GSH + GSSG, after 2 hours ischemia",[2]; after 2 hours ischemia,4.40 ± 0.68 μmol/g of liver wet weight
same,"Liver tissue glutathione, GSH, after 2 hours ischemia",[2]; after 2 hours ischemia,4.35 ± 0.65 μmol/g of liver wet weight
same,"Liver tissue glutathione, GSSG, after 2 hours ischemia",[2]; after 2 hours ischemia,0.35 ± 0.04 μmol/g of liver wet weight
same,"Liver tissue glutathione, GSH + GSSG, before ischemia",[2]; before ischemia,5.29 ± 0.38 μmol/g of liver wet weight
same,"Liver tissue glutathione, GSH, before ischemia",[2]; before ischemia,4.91 ± 0.35 μmol/g of liver wet weight
same,"Liver tissue glutathione, GSSG, before ischemia",[2]; before ischemia,0.38 ± 0.06 μmol/g of liver wet weight
same,"Number of Ventricular Premature Beats, 1 Hour of Reperfusion",[3]; [8],1731 ± 1574
same,"Total Duration of Ventricular Tachycardia, 1 Hour of Reperfusion",[3]; [8],983 ± 959 s
same,effect on total duration of ventricular tachycardia during reperfusion,[3]; [8],did not show such effect whatsoever
same,occurrence of arrhythmia (ventricular premature beats) during reperfusion,[3]; [8],not suppressed at all
same,"Number of Ventricular Premature Beats, 2 Hours of Ischemia",[3]; [9],42 ± 43
same,"Total Duration of Ventricular Tachycardia, 2 Hours of Ischemia",[3]; [9],1 ± 2 s
same,Concentration of liver lipid peroxide following reperfusion,[4],9.1±2.0 nmol/mg protein
same,Serum ALT after 1 hour of reperfusion,[5],2337 ± 571 IU/L
same,Serum AST after 1 hour of reperfusion,[5],3914 ± 1102 IU/L
same,Serum LDH after 1 hour of reperfusion,[5],26435 ± 12191 IU/L
same,effect on leakage of liver cell enzymes into the blood following 1 hour of reperfusion,[5],did not significantly mitigate the leakage
same,Adenine nucleotides concentration in hepatic vein immediately after starting reperfusion,[6],3.59 ± 1.28 μmol/L serum
same,effect on leakage of adenine nucleotides into the hepatic vein,[6],did not significantly mitigate the leakage
same,effect on restoration of liver ATP following reperfusion,[7]; 1 hour reperfusion,did not show any promotive effects on the restoration of ATP
same,"Liver tissue ADP, after 1 hour reperfusion",[7]; after 1 hour reperfusion,0.38 μmol/g wet liver weight
same,"Liver tissue AMP, after 1 hour reperfusion",[7]; after 1 hour reperfusion,0.15 μmol/g wet liver weight
same,"Liver tissue ATP + ADP + AMP, after 1 hour reperfusion",[7]; after 1 hour reperfusion,1.66 μmol/g wet liver weight
same,"Liver tissue ATP, after 1 hour reperfusion",[7]; after 1 hour reperfusion,1.13 μmol/g wet liver weight
same,"Liver tissue ADP, after 2 hours ischemia",[7]; after 2 hours ischemia,0.13 μmol/g wet liver weight
same,"Liver tissue AMP, after 2 hours ischemia",[7]; after 2 hours ischemia,0.73 μmol/g wet liver weight
same,"Liver tissue ATP + ADP + AMP, after 2 hours ischemia",[7]; after 2 hours ischemia,0.90 μmol/g wet liver weight
same,"Liver tissue ATP, after 2 hours ischemia",[7]; after 2 hours ischemia,0.04 μmol/g wet liver weight
same,"Liver tissue ADP, before ischemia",[7]; before ischemia,0.65 μmol/g wet liver weight
same,"Liver tissue AMP, before ischemia",[7]; before ischemia,0.18 μmol/g wet liver weight
same,"Liver tissue ATP + ADP + AMP, before ischemia",[7]; before ischemia,3.40 μmol/g wet liver weight
same,"Liver tissue ATP, before ischemia",[7]; before ischemia,2.57 μmol/g wet liver weight

# Source: patent US6127342A, “Method for preventing or treating a lung disease caused by active oxygen and free radical injury” (Teijin Limited, priority 1991, dated 2000)
